The text below walks through data of patent US10046000B2, “Use of 2-methylene-19-nor-(20S)-1α,25-Dihydroxyvitamin D3 to treat and prevent secondary hyperparathyroidism in a subject having renal failure” (Wisconsin Alumni Research Foundation, priority 2012, dated 2018).

Data set [1] relates to serum calcium. To be noted: rat, in vivo; cited from earlier work.
In data set [2] the test system is rats with renal insufficiency. The settings on record: four times during eight days, cited from earlier work.
For data set [3], the system named is uremic rat model. Type of data set: in vivo. The settings on record: for effect on serum phosphorus levels: nephrectomized rats. The text has this: (§1) Nephrectomy Rat Model. Disease Induction. Weanling, male Sprague-Dawley rats were obtained from Harlan (Madison, Wis.). Following a 10-13 day acclimation period, the animals had two-thirds of one kidney removed. After a week, the other entire kidney was removed. The animals were then switched from a chow diet to a purified rodent diet (Suda et al., Purified Rodent Diet-Diet 11) containing 0.6% Ca and 0.9% phosphorus and fat soluble vitamins A, D, E and K. Water and diet were provided ad libitum.
(§2) Animal Husbandry. Animals were housed in suspended, plastic shoe-box style cages with corn cob bedding (prior to surgery) or in stainless steel, wire-bottom cages (approximately one week after surgery). The animal rooms were maintained at a temperature of 68 to 72° F. and a relative humidity of 25 to 75%. The holding rooms were set to provide 12 hours of light per day.
(§3) Treatment Groups. Approximately four weeks after the second surgery, animals were assigned to treatment groups (14-15 animals/group) so that each group had the same average PTH level.
(§4) Dose Preparation (Vehicle Formulation). The negative control material was prepared by volumetrically measuring ethanol (5%) and Neobee oil, mixing and then placing in storage at 2 to 8° C.
Dose Preparation (2MD Formulation). 2MD formulations (DP001, Sigma Aldrich Fine Chemicals, Madison, Wis.) were prepared by first determining the concentration of an ethanol stock solution using UV spectrophotometry (extinction coefficient=42,000; λmax=252 nm). The solutions were then volumetrically added to Neobee oil so that there was no more than 5% ethanol in the final solution. If necessary, additional ethanol was added to bring the final ethanol amount to 5%. The solution was mixed and stored at 2 to 8° C.
Dose Administration Method. Both vehicle and 2MD were administered orally to the back of the tongue at 0.5 ml/kg body weight once daily for 8 weeks, or intraperitoneally three times per week for 4 weeks.
Serum Parathyroid Hormone (PTH) Levels. By “serum PTH levels” we mean the amount of PTH released by the parathyroid gland. PTH is the most important regulator of the body's calcium and phosphorus levels, and is controlled by the level of calcium in the blood. Low blood calcium levels cause increased PTH to be released, while high blood calcium levels inhibit PTH release. Normal values are 10-55 picograms per milliliter ([…]). Four weeks after surgery and 4 and 8 weeks after treatment initiation, blood was collected from the tail artery and the concentration of bioactive serum PTH was measured using the rat BioActive Intact PTH ELISA Kit from Immutopics, Inc. (San Clemente, Calif.).
Serum Calcium Analysis. Four weeks following surgery and 4 and 8 weeks after treatment started, blood was collected from the tail artery of each experimental animal. The blood was allowed to coagulate at room temperature and then centrifuged at 3000×g for 15 minutes. The serum was transferred to a polypropylene tube and stored frozen at −20° C. The level of calcium was determined by diluting the serum into 0.1% lanthum chloride and measuring the absorbance on an atomic absorption spectrophotometer (Perkin Elmer Model 3110, Shelton, Conn.).
Phosphorus Assay. Four weeks after surgery and 8 weeks after treatment started, blood was collected from the tail artery of each experimental animal. The blood was allowed to coagulate at room temperature and then centrifuged at 3000×g for 15 minutes. The serum was transferred to a polypropylene tube and stored frozen at −20° C. The level of phosphorus was determined using a clinical analyzer (Pentra 400, Horiba ABX Diagnostics—France; UV method using phosphomolybdate).
Creatinine Assay. Measuring serum creatinine levels is a useful and inexpensive method of evaluating renal dysfunction. Creatinine is a non-protein waste product of phosphocreatinine metabolism by skeletal muscle tissue. Creatinine production is continuous and is proportional to muscle mass. […]

In data set [4] the test system is bovine parathyroid cells. To be noted: cited from earlier work; for suppression of PTH secretion compared with 1,25-(OH)2D3: cultured bovine parathyroid cells.
Data set [5] deals with postmenopausal women. Put plainly: Phase 1B trial, oral administration of 2MD to postmenopausal women. Type of data set: in vivo, human. To be noted: for reduction of serum PTH levels: oral.
Data set [6] deals with bone calcium mobilization. The settings on record: in vivo; cited from earlier work.
The test system of data set [7] is uremic rat model. Nature of the data set: Uremic rat model, intraperitoneal (ip) administration of 2MD. The data set is classed as in vivo.
Description: as §1, §2, §3, §4
Dose Preparation (2MD Formulation). 2MD formulations (DP001, Sigma Aldrich Fine Chemicals, Madison, Wis.) were prepared by first determining the concentration of an ethanol stock solution using UV spectrophotometry (extinction coefficient=42,000; λmax=252 nm). […]
Serum Parathyroid Hormone (PTH) Levels. […] Four weeks after surgery and 4 and 8 weeks after treatment initiation, blood was collected from the tail artery and the concentration of bioactive serum PTH was measured using the rat BioActive Intact PTH ELISA Kit from Immutopics, Inc. (San Clemente, Calif.).
Serum Calcium Analysis. […] The level of calcium was determined by diluting the serum into 0.1% lanthum chloride and measuring the absorbance on an atomic absorption spectrophotometer (Perkin Elmer Model 3110, Shelton, Conn.). […]

For data set [8], the system named is intestinal calcium transport. The settings on record: in vivo; cited from earlier work.
In data set [9] the test system is uremic rats. To be noted: cited from earlier work.
Data set [10] concerns uremic dogs. To be noted: cited from earlier work.
The test system of data set [11] is PTH mRNA. To be noted: in vivo; cited from earlier work.
Data set [12] deals with MRL/MpJ-FAS^lpr (MRL/pr) mouse model. To be noted: 300 ng per day through the diet; cited from earlier work.

SMILES strings stand for the structures. Where two headings read alike, the source gives them in different places.

For the molecule `C[C@H](/C=C/[C@H](C)C(C)(C)O)[C@H]1CC[C@H]2/C(=C/C=C3C[C@@H](O)C[C@H](O)C3)CCC[C@]12C` [Zemplar®, 19-nor-1α,25-dihydroxy-ergocalciferol], the “dose that increased serum calcium to the same magnitude” value in data set [1] is 100 ng/rat/10 days. Besides, the “changes in serum ionized calcium or serum phosphorus” value in [2] (8, 25 and 75 ng) is “none of the doses of 19-nor-1,25-(OH)2D2 produced statistically significant changes”. Further, in [3] (oral Zemplar), the “serum creatinine levels compared to Vehicle control animals” value is “lowered serum creatinine levels compared to Vehicle control animals, however, only at dose levels that significantly increased serum calcium” and the “effect on serum phosphorus levels” value was “did not reduce serum phosphorus levels”. Besides, the “duration of the effect on serum PTH” value in data set [3] (oral daily treatment for up to 8 weeks) is “the therapeutic effect was lost as the disease progressed”. For the same molecule, the “effect on serum PTH levels” value in [3] (oral, daily doses of 30-300 ng/kg bw, FIG. 6) was “prevented an increase in serum PTH levels”. The “suppression on PTH release” value in data set [4] (10^−7M) is reported as 52%.

As for `C=C1[C@H](O)CC(=C/C=C2\CCC[C@@]3(C)C2CCC3[C@@H](C)CCCC(C)(C)O)C[C@H]1O` (stereo partly drawn) [2MD, 2-methylene-19-nor-(20S)-1α,25-dihydroxyvitamin D3], the serum calcium levels result in data set [5] (400 ng per day) was “maintaining serum calcium levels within the physiologically normal range”. In addition, in [5] (400 ng per day, FIG. 13), the “reduction in serum PTH levels” value is reported as above 60%. The figures for the “reduction of serum PTH levels” value in data set [5] (110 ng once daily for 28 days) and in data set [5] (440 ng once daily for 28 days) were 21% and 67%, respectively. Also, the “bone calcium mobilization activity” value in data set [6] is given as 10-100 times that of 1α,25-(OH)2D3. In addition, in [7] (ip three times per week, FIG. 3), the “dose at which serum calcium levels were raised” value came to 10 ng/kg bw. In addition, in data set [7] (ip, 5 ng/kg bw three times per week, FIG. 2), the “effect on serum PTH” value is “prevented increases in serum PTH”. For the same molecule, the “effect on circulating PTH levels” value in data set [7] (ip, 10 ng/kg bw three times per week, FIG. 2) was “suppresses circulating PTH levels”. The “intestinal calcium transport activity” value in [8] is given as “modest increase in intestinal calcium transport activity”. In addition, the “doses at which clinically significant serum calcium increases are observed” value in [3] (male, Sprague-Dawley, rat, in vivo, po, 8 weeks) is recorded as 5 ng/kg bw. Moreover, the “effect on serum PTH levels” value in data set [3] (oral, daily doses of 1-5 ng/kg bw, FIG. 5) was “prevented an increase or effected a reduction in serum PTH levels”. Moreover, the “serum creatinine levels compared to Vehicle control animals” value in data set [3] (oral, daily doses of 1-5 ng/kg bw, FIG. 11) is listed as “resulted in lower serum creatinine levels”. Moreover, the “effect on serum phosphorus levels” value in data set [3] (oral, daily doses of 1-5 ng/kg bw, FIG. 9) is recorded as “reduced serum phosphorus levels”.

For `C=C1/C(=C\C=C2/CCC[C@]3(C)C([C@H](C)CC#CC(C)(C)O)=CC[C@@H]23)C[C@@H](O)C[C@@H]1O` [1,25-(OH)2-16-ene-23-yne-D3], in data set [4], the “suppression of PTH secretion compared with 1,25-(OH)2D3” value is reported as “nearly as effective as 1,25-(OH)2D3”.

In the case of `C=C1/C(=C\C=C2/CCC[C@]3(C)[C@@H]([C@H](C)OCCC(C)(C)O)CC[C@@H]23)C[C@@H](O)C[C@@H]1O` [22-oxacalcitriol], the “serum PTH” value in data set [9] and in data set [10] was “suppress serum PTH” each time. Besides, the “suppression of PTH mRNA” value in [11] is “could suppress PTH mRNA”. Besides, the “suppression of PTH secretion compared with 1,25-(OH)2D3” value in data set [4] is reported as “nearly as effective as 1,25-(OH)2D3”.

For the molecule `C=C1/C(=C\C=C2/CCC[C@]3(C)[C@@H]([C@H](C)CCCC(C)(C)O)CC[C@@H]23)C[C@@H](O)C[C@@H]1O` [1,25-(OH)2D3, 1α,25-dihydroxyvitamin D3], the “dose that increased serum calcium to the same magnitude” value in [1] is 10 ng/rat/10 days. The “effect on serum calcium and phosphorus” value in [2] (8 ng dose) is “induced hypercalcemia and hyperphosphatemia”. For the same molecule, the “effect on pre-pro-PTH mRNA and PTH secretion” value in data set [2] (2, 4 and 8 ng) is “suppressed pre-pro-PTH mRNA and PTH secretion”. For the same molecule, the “dose at which the decrease of pre-pro-PTH mRNA and PTH secretion was statistically significant” value in [2] is on record as 8 ng. In addition, in data set [12], the hypercalcemia entry was “severe hypercalcemia always accompanied this treatment” and the proteinuria entry is on record as “completely prevents proteinuria”.

On to `C=C1C(=CC=C2CCCC3(C)C2CCC3C(C)CCCCCC(C)(C)O)CC(O)CC1O` (stereo not drawn) [1,25-(OH)2-24-dihomo-D3], for which the “suppression of PTH secretion compared with 1,25-(OH)2D3” value in data set [4] is on record as “nearly as effective as 1,25-(OH)2D3”.

On to `C=C1C(=CC=C2CCCC3(C)C2CCC3C(C)C=CCCCCC(C)(C)O)CC(O)CC1O` (stereo not drawn) [1,25-(OH)2-24-trihomo-22-ene-D3], for which the “suppression of PTH secretion compared with 1,25-(OH)2D3” value in data set [4] is reported as “nearly as effective as 1,25-(OH)2D3”.
